{"source": "patent US5135917A", "about": "“Interleukin receptor expression inhibiting antisense oligonucleotides” (Nova Pharmaceutical Corporation, priority 1990, dated 1992)", "assay_type_in_all_cases": "cell-based", "key": {"Murine Swiss 3T3 cells": {"test_system": "Murine Swiss 3T3 cells", "experiment": "IL-1 stimulated prostaglandin E2 synthesis, murine fibroblasts", "conditions": "oligonucleotides 30 μm for 48 hours, then IL-1β 10 μ/ml for 6 hours, control 60", "experimental": "(§1) 1. IL-1 stimulated prostaglandin E2 synthesis.\n(§2) Effects of expression of IL-1 receptors by murine and human fibroblasts were assessed as follows Murine Swiss 3T3 cells (American Type Culture Collection ATCC CCL 92) or human dermal fibroblasts (primary culture) were grown in 96-well plates in Dulbecco's modified Eagles medium containing either 10% calf serum or 10% fetal bovine serum, respectively (Grand Island Biological Company), to confluency. The culture medium was replaced with identical medium except that the serum had been heat-inactivated at 65° C. for 15 minutes to inactivate nucleases. Oligonucleotides (30 μm) were added to the cultures and incubated for 48 hours. […] Oligonucleotides (phosphorothioates) S0-1, S0-2 and S0-3 are antisense to murine IL-1 receptor DNA and S0-6 is antisense to human IL-1 receptor DNA."}, "human dermal fibroblasts [1]": {"test_system": "human dermal fibroblasts", "experiment": "IL-1 stimulated prostaglandin E2 synthesis, human fibroblasts", "conditions": "Human cells; oligonucleotides 30 μm for 48 hours, then IL-1β 10 μ/ml for 6 hours; control 25", "experimental": "as §1, §2"}, "human dermal fibroblasts [2]": {"test_system": "human dermal fibroblasts", "experiment": "Liposome delivery, IL-1 stimulated PGE2 in human dermal fibroblasts", "conditions": "liposomes; S0-6 30 μM; IL-1 10 U/ml for 4 hours; control (empty liposome) 65", "description": "For the experiment human dermal fibroblasts were incubated for 18 hours with IL-1, 100 u/ml., to down-regulate existing receptors. The cells were then rinsed three times with phosphate-buffered saline containing 2 mM calcium and 0.1 mM magnesium to remove IL-1, then incubated 30 minutes. Liposomes were then added and the mixture was incubated for 30 minutes. Finally, polyethylene glycol (M.W.6000) was added for 1 minute, then the cultures were rinsed three times in culture medium. Cultures were incubated for eight hours, then stimulated with IL-1, 10 U/ml for 4 hours. Media were collected for radioimmunoassy of PGE2."}}}
{"substance": "IL-1: cytokine interleukin 1, used as stimulus of prostaglandin E2 synthesis", "values": [{"measurement": "PGE2, pg/well", "setting": "Murine Swiss 3T3 cells", "value": 375, "unit": "pg/well"}, {"measurement": "PGE2, pg/well", "setting": "human dermal fibroblasts [1]", "value": 285, "unit": "pg/well"}, {"measurement": "PGE2, pg/well", "setting": "human dermal fibroblasts [2]", "value": 398, "unit": "pg/well"}]}
